Experiments:
Type in all cases: in vivo
[1] = system: galium (catchweed bedstraw, Galium aparine); assay: Test A greenhouse herbicide test, postemergence
Method in brief: (§1)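 Pot-grown plants (loam soil/sand blend), 2–10 cm tall at the one- to two-leaf stage, received postemergence sprays of formulated test chemical. After about 10 d in the greenhouse, injury was rated visually against untreated controls on a 0 (no effect) to 100 (complete control) scale.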

[2] = system: blackgrass (Alopecurus myosuroides); assay: Test A greenhouse herbicide test, postemergence
Method in brief: as §1

[3] = system: barnyardgrass (Echinochloa crus-galli); assay: Test B flooded paddy test; conditions: 250 g ai/ha, Flood; visual rating on scale of 0 to 100 where 0 is no effect and 100 is complete control; 13 to 15 d after treatment
Method in brief: (§2)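 Plants grown to the 2-leaf stage. At treatment, pots were flooded to 3 cm above the soil, compound was applied directly to the paddy water, and that depth was held throughout. After 13 to 15 d in the greenhouse, response was rated visually against controls on a 0 (no effect) to 100 (complete control) scale.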

[4] = system: sedge, umbrella (small-flower umbrella sedge, Cyperus difformis); assay: Test B flooded paddy test; conditions: 250 g ai/ha, Flood; visual rating on scale of 0 to 100 where 0 is no effect and 100 is complete control; 13 to 15 d after treatment
Method in brief: as §2

rice (Oryza sativa) = assay: Test B flooded paddy test; conditions: 250 g ai/ha, Flood; visual rating on scale of 0 to 100 where 0 is no effect and 100 is complete control; 13 to 15 d after treatment
Method in brief: as §2

[5] = system: ducksalad (Heteranthera limosa); assay: Test B flooded paddy test; conditions: 250 g ai/ha, Flood; visual rating on scale of 0 to 100 where 0 is no effect and 100 is complete control; 13 to 15 d after treatment
Method in brief: as §2

[6] = system: pigweed (Amaranthus retroflexus); assay: Test A greenhouse herbicide test, pre- and postemergence
Description: (§3) Seeds of plant species selected from barnyardgrass (Echinochloa crus-galli), kochia (Kochia scoparia), ragweed (common ragweed, Ambrosia elatior), ryegrass, Italian (Italian ryegrass, Lolium multiflorum), crabgrass, large (large crabgrass, Digitaria sanguinalis), foxtail, giant (giant foxtail, Setaria faberii), momingglory (Ipomoea spp.), pigweed (Amaranthus retroflexus), velvetleaf (Abutilon theophrasti), wheat (Triticum aestivum), and corn (Zea mays) were planted into a blend of loam soil and sand and treated preemergence with a directed soil spray using test chemicals formulated in a non-phytotoxic solvent mixture which included a surfactant.
(§4) At the same time, plants selected from these crop and weed species and also blackgrass (Alopecurus myosuroides), and galium (catchweed bedstraw, Galium aparine) were planted in pots containing the same blend of loam soil and sand and treated with postemergence applications of test chemicals formulated in the same manner. Plants ranged in height from 2 to 10 cm and were in the one- to two-leaf stage for the postemergence treatment. Treated plants and untreated controls were maintained in a greenhouse for approximately 10 d, after which time all treated plants were compared to untreated controls and visually evaluated for injury. Plant response ratings, summarized in Table A, are based on a 0 to 100 scale where 0 is no effect and 100 is complete control. A dash (-) response means no test result.

[7] = system: foxtail, giant (giant foxtail, Setaria faberii); assay: as above
Description: as §3, §4

kochia (Kochia scoparia) = assay: as above
Description: as §3, §4

[8] = system: barnyardgrass (Echinochloa crus-galli); assay: as above
Description: as §3, §4

corn (Zea mays) = assay: as above; conditions: Postemergence
Description: as §3, §4

[9] = system: ragweed (common ragweed, Ambrosia elatior); assay: as above
Description: as §3, §4

[10] = system: ryegrass, Italian (Italian ryegrass, Lolium multiflorum); assay: as above
Description: as §3, §4

[11] = system: wheat (Triticum aestivum); assay: as above; conditions: Postemergence
Description: as §3, §4

[12] = 125 g ai/ha, 0 to 100 scale where 0 is no effect and 100 is complete control
[13] = 500 g ai/ha, visual rating after approx. 10 d, 0 to 100 scale (0 no effect, 100 complete control)
[14] = Postemergence, 125 g ai/ha, 0 to 100 scale where 0 is no effect and 100 is complete control
[15] = Postemergence, 500 g ai/ha, visual rating after approx. 10 d, 0 to 100 scale (0 no effect, 100 complete control)
[16] = Preemergence, 125 g ai/ha, 0 to 100 scale where 0 is no effect and 100 is complete control
[17] = Preemergence, 500 g ai/ha, 0 to 100 scale where 0 is no effect and 100 is complete control
[18] = 125 g ai/ha, 0 to 100 scale, 0 no effect, 100 complete control
[19] = Postemergence, 125 g ai/ha, 0 to 100 scale, 0 no effect, 100 complete control
[20] = Preemergence, 125 g ai/ha, visual injury rating, 0 to 100 scale (0 no effect, 100 complete control), approx. 10 d

Row | SMILES | Plant response rating, Galium [1, 13] | Plant response rating, Blackgrass [2, 13] | Plant response rating, Barnyardgrass [3] | Plant response rating, Sedge, Umbrella [4] | Plant response rating, Rice (rice (Oryza sativa)) | Plant response rating, Ducksalad [5] | Plant response rating, Pigweed [6, 15] | Plant response rating, Pigweed [6, 17] | Plant response rating, Foxtail, Giant [7, 15] | Plant response rating, Foxtail, Giant [7, 17] | Plant response rating, Kochia (kochia (Kochia scoparia); [15]) | Plant response rating, Kochia (kochia (Kochia scoparia); [17]) | Plant response rating, Barnyardgrass [8, 15] | Plant response rating, Barnyardgrass [8, 17] | Plant response rating, Corn (corn (Zea mays); [13]) | Plant response rating, Ragweed [9, 15] | Plant response rating, Ragweed [9, 17] | Plant response rating, Ryegrass, Italian [10, 15] | Plant response rating, Ryegrass, Italian [10, 17] | Plant response rating, Wheat [11, 13] | other results
1 | CCC(=O)Oc1c(C)nn(C)c(=O)c1-c1c(C(F)(F)F)ccc2ccccc12 [Compound 147] | 100 | 90 | 0 | 0 | 0 | 0 | 90 | 100 | 80 | 40 | 100 | 80 | 40 | 60 | 0 | 90 | 90 | 100 | 100 | 80 | Plant response rating, Galium [1, 12]: 90; Plant response rating, Blackgrass [2, 12]: 60; Plant response rating, Pigweed [6, 14]: 90; Pigweed plant response rating [6, 16]: 90; Plant response rating, Foxtail, Giant [7, 14]: 30; Foxtail, Giant plant response rating [7, 16]: 10; Plant response rating, Kochia (kochia (Kochia scoparia); [14]): 80; Kochia plant response rating (kochia (Kochia scoparia); [16]): 50; Plant response rating, Barnyardgrass [8, 14]: 10; Barnyardgrass plant response rating [8, 16]: 30; Plant response rating, Corn (corn (Zea mays); [12]): 0; Plant response rating, Ragweed [9, 14]: 90; Plant response rating, Ryegrass, Italian [10, 14]: 90; Plant response rating, Wheat [11, 12]: 20
2 | CC(=O)Oc1c(C)nn(C)c(=O)c1-c1c(C(F)(F)F)ccc2ccccc12 [Compound 148] | 90 | 80 | 0 | 0 | 0 | 0 | 90 | 100 | 70 | 50 | 90 | 90 | 30 | 60 | 0 | 90 | 80 | 90 | 100 | 60 | Plant response rating, Galium [1, 12]: 90; Plant response rating, Blackgrass [2, 12]: 60; Plant response rating, Pigweed [6, 14]: 90; Pigweed plant response rating [6, 16]: 100; Plant response rating, Foxtail, Giant [7, 14]: 30; Foxtail, Giant plant response rating [7, 16]: 20; Plant response rating, Kochia (kochia (Kochia scoparia); [14]): 80; Kochia plant response rating (kochia (Kochia scoparia); [16]): 30; Plant response rating, Barnyardgrass [8, 14]: 10; Barnyardgrass plant response rating [8, 16]: 10; Plant response rating, Corn (corn (Zea mays); [12]): 0; Plant response rating, Ragweed [9, 14]: 90; Plant response rating, Ryegrass, Italian [10, 14]: 90; Plant response rating, Wheat [11, 12]: 20
3 | C#Cc1ccc2cccc(-c3c(O)c(C)nn(C)c3=O)c2c1 [Compound 150] | 80 | 50 | 0 | 0 | 0 | 0 | 80 | 100 | 30 | 30 | 70 | 20 | 30 | 10 | 0 | 30 | 30 | 90 | 70 | 20 | Plant response rating, Galium [1, 12]: 30; Plant response rating, Blackgrass [2, 12]: 0; Plant response rating, Pigweed [6, 14]: 40; Pigweed plant response rating [6, 16]: 80; Plant response rating, Foxtail, Giant [7, 14]: 0; Foxtail, Giant plant response rating [7, 16]: 0; Plant response rating, Kochia (kochia (Kochia scoparia); [14]): 40; Kochia plant response rating (kochia (Kochia scoparia); [16]): 0; Plant response rating, Barnyardgrass [8, 14]: 0; Barnyardgrass plant response rating [8, 16]: 0; Plant response rating, Corn (corn (Zea mays); [12]): 0; Plant response rating, Ragweed [9, 14]: 0; Plant response rating, Ryegrass, Italian [10, 14]: 40; Plant response rating, Wheat [11, 12]: 0
4 | Cc1ccc2ccccc2c1-c1c(OS(C)(=O)=O)c(Br)nn(C)c1=O [Compound 155] | 90 | 70 | 0 | 65 | 20 | 50 | 100 | 100 | 90 | 90 | 80 | 90 | 80 | 80 | 20 | 100 | 90 | 90 | 90 | 50 | Plant response rating, Galium [1, 18]: 90; Plant response rating, Blackgrass [2, 18]: 60; Plant response rating, Pigweed [6, 19]: 90; Plant response rating, Pigweed [6, 20]: 100; Plant response rating, Foxtail, Giant [7, 19]: 80; Plant response rating, Foxtail, Giant [7, 20]: 60; Plant response rating, Kochia (kochia (Kochia scoparia); [19]): 70; Plant response rating, Kochia (kochia (Kochia scoparia); [20]): 20; Plant response rating, Barnyardgrass [8, 19]: 30; Plant response rating, Barnyardgrass [8, 20]: 50; Plant response rating, Corn (corn (Zea mays); [18]): 0; Plant response rating, Ragweed [9, 19]: 100; Plant response rating, Ragweed [9, 20]: 90; Plant response rating, Ryegrass, Italian [10, 19]: 90; Plant response rating, Ryegrass, Italian [10, 20]: 70; Plant response rating, Wheat [11, 18]: 30
5 | CC(=O)Oc1c(C)nn(C)c(=O)c1-c1ccc(Cl)c2ccccc12 [Compound 157] | 100 | 70 | 20 | 75 | 0 | 0 | 100 | 100 | 80 | 80 | 100 | 100 | 80 | 90 | 40 | 100 | 90 | 100 | 100 | 50 | Plant response rating, Galium [1, 18]: 100; Plant response rating, Blackgrass [2, 18]: 60; Plant response rating, Pigweed [6, 19]: 90; Plant response rating, Pigweed [6, 20]: 100; Plant response rating, Foxtail, Giant [7, 19]: 60; Plant response rating, Foxtail, Giant [7, 20]: 50; Plant response rating, Kochia (kochia (Kochia scoparia); [19]): 100; Plant response rating, Kochia (kochia (Kochia scoparia); [20]): 100; Plant response rating, Barnyardgrass [8, 19]: 50; Plant response rating, Barnyardgrass [8, 20]: 70; Plant response rating, Corn (corn (Zea mays); [18]): 0; Plant response rating, Ragweed [9, 19]: 100; Plant response rating, Ragweed [9, 20]: 60; Plant response rating, Ryegrass, Italian [10, 19]: 100; Plant response rating, Ryegrass, Italian [10, 20]: 100; Plant response rating, Wheat [11, 18]: 0

Reference: patent US10597388B2, “Pyridazinone herbicides” (FMC CORPORATION, priority 2014, dated 2020)
